The source made the active and inactive calls.
Columns and labels:
[1] = target: T1, Tyrosine-protein phosphatase non-receptor type 7 (Homo sapiens, UniProt P35236); test: HePTP tyrosine phosphatase activity blockers – biochemical, absorbance, leukemia target, primary screen (AID 521); type: functional
T1 sequence (P35236 whole entry): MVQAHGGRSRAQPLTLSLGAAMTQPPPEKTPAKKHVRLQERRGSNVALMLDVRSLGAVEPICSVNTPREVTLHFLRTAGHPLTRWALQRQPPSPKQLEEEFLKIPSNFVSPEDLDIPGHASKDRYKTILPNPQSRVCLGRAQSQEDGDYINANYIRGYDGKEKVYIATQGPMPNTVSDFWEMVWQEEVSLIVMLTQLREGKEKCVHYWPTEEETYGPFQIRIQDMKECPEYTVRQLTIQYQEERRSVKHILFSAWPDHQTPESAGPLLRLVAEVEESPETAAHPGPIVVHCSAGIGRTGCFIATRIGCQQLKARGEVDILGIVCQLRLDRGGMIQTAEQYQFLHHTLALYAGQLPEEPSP

[2] = Trypanosoma cruzi growth suppression in host cells – NIH3T3 host cells, beta-gal luminescence, confirmation (AID 2044); type: functional, cell-based;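 further: intracellular parasites grown in NIH/3T3 mouse fibroblasts as host cells; luminescent beta-galactosidase reporter signal from transgenic T. cruzi replicating inside host cells; inhibitors lower the luminescence signal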
[3] = NIH3T3 cell viability loss – ATP luminescence, mouse fibroblasts, counter-screen, dose response (AID 2010); type: functional, cell-based;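 further: cells exposed to compound for about 90 hours before reading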
[4] = cells
[5] = blockers of HIV-1 ZM109 envelope-driven cell-cell fusion – HeLa effector, CEM target cells, luciferase, cherry-pick, dose response (AID 652058); type: functional, cell-based;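 further: luciferase signal from HIV-1 Env mediated cell-cell fusion of effector and target cells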
[6] = HIV-1 AD8 envelope cell-cell fusion blockers – cherry-pick, dose response (AID 652062); type: functional, cell-based;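 further: luciferase signal from cell-cell fusion driven by HIV-1 clade B AD8 Env; potency is for inhibitors of fusion seen as a drop in luminescence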
[7] = target: T2, Bcl-2-related protein A1 (Mus musculus, UniProt Q07440); test: small-molecule antagonists of Bfl-1/BH3 interaction – biochemical, TR-FRET, mouse Bfl-1, confirmation (AID 621);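 further: TR-FRET binding of GST-Bfl-1 to FITC-labelled Bid peptide via terbium antibody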
T2 sequence (Q07440 whole entry): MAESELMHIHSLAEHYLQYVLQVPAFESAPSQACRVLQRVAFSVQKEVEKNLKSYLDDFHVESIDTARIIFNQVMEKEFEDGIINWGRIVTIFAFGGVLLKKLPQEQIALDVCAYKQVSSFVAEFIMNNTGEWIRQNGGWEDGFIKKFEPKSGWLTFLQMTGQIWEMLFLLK

[8] = target: T2, Bcl-2-related protein A1; test: Bfl-1 binding inhibitors, SAR follow-up, biochemical, fluorescence polarization (AID 1070)
[9] = system: HeLa; test: ATP-based viability loss in HeLa cells – cell-based, CellTiter-Glo luminescence, cherry-pick samples, cytotoxicity control for MITF activator project, dose response (AID 540259); type: functional; conditions: Homo sapiens
[10] = target: T3, Dual specificity protein phosphatase 6 (Rattus norvegicus, UniProt Q64346); test: inhibition of rat DUSP6 enzyme activity – biochemical, in vitro, primary screen (AID 425)
T3 sequence (Q64346 whole entry): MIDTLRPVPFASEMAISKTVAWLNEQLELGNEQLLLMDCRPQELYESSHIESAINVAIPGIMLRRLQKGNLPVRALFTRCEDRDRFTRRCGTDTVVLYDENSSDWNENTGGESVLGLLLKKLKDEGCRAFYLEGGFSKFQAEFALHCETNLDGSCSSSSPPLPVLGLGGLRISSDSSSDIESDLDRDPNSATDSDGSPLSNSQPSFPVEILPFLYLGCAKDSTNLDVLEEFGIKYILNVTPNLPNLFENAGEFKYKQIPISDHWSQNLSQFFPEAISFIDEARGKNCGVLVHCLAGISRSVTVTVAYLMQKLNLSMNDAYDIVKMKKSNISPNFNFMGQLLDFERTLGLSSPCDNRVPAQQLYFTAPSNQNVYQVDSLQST

[11] = target: Induced myeloid leukemia cell differentiation protein Mcl-1 (Homo sapiens, UniProt Q07820); type: functional
Induced myeloid leukemia cell differentiation protein Mcl-1, sequence (Q07820 whole entry): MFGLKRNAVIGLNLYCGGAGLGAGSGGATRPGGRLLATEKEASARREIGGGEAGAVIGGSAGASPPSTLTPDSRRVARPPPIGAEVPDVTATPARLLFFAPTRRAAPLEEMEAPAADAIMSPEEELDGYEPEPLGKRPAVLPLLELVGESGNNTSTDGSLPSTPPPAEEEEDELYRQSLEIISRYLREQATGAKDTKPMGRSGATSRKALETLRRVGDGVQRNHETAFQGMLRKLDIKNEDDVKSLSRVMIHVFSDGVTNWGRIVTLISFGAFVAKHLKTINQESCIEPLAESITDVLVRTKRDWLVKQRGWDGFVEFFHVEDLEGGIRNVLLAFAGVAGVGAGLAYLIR

[12] = target: Eukaryotic translation initiation factor 4E (Mus musculus, UniProt P63073); test: blockers of eIF4G binding by eIF4E – biochemical, TR-FRET, dose response (AID 855); type: functional;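 further: potency for disrupting eIF4E binding to eIF4GI seen as loss of FRET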
Eukaryotic translation initiation factor 4E, sequence (P63073 whole entry): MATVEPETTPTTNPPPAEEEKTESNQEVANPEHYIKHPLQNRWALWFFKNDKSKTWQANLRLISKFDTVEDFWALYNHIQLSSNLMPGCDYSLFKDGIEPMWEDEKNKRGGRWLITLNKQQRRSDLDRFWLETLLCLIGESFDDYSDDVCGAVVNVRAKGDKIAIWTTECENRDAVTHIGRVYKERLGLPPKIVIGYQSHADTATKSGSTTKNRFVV

[13] = target: Protein Tat (Human immunodeficiency virus type 1 group M subtype B (isolate HXB2)(HIV-1), UniProt P04608); type: functional;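 further: tat binding to TAR RNA read out by fluorescence polarization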
Protein Tat, sequence (P04608 whole entry): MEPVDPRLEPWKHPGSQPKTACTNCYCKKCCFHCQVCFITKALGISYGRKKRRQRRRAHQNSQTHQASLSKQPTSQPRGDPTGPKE

[14] = target: T4, Leucine aminopeptidase (Plasmodium falciparum 3D7, UniProt Q8IL11); test: P. falciparum M17LAP inhibitors, primary screen, biochemical, fluorogenic H-Leu-NHMec substrate, 1536-well (AID 1619); type: functional
T4 sequence (Q8IL11 whole entry): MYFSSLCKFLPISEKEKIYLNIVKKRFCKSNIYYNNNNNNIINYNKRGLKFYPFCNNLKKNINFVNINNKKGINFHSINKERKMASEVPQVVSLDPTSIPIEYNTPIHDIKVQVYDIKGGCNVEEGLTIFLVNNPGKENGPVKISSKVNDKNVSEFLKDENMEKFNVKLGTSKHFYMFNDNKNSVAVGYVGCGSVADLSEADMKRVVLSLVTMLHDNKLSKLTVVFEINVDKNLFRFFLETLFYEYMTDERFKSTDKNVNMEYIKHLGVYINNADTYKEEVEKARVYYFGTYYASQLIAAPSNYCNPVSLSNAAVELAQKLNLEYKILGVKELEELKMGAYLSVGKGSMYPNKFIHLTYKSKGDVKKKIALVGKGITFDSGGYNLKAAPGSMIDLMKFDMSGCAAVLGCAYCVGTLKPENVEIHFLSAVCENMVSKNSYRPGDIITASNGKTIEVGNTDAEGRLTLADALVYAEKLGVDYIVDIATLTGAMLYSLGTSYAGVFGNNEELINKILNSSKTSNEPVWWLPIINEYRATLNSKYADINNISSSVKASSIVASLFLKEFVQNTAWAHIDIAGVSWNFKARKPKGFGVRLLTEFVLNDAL

[15] = target: T5, Aspartyl aminopeptidase (Plasmodium falciparum 3D7, UniProt Q8I2J3); test: Counterscreen for inhibitors of M1 and M17 aminopeptidases: QFRET-based biochemical high throughput dose response assay for inhibitors of the Plasmodium falciparum M18 Aspartyl Aminopeptidase (PFM18AAP). [Related PubChem assays: 1619 (Screening assay (M17LAP inhibitors).), 1445 (Screening assay (M1AAP inhibitors).)]
T5 sequence (Q8I2J3 whole entry): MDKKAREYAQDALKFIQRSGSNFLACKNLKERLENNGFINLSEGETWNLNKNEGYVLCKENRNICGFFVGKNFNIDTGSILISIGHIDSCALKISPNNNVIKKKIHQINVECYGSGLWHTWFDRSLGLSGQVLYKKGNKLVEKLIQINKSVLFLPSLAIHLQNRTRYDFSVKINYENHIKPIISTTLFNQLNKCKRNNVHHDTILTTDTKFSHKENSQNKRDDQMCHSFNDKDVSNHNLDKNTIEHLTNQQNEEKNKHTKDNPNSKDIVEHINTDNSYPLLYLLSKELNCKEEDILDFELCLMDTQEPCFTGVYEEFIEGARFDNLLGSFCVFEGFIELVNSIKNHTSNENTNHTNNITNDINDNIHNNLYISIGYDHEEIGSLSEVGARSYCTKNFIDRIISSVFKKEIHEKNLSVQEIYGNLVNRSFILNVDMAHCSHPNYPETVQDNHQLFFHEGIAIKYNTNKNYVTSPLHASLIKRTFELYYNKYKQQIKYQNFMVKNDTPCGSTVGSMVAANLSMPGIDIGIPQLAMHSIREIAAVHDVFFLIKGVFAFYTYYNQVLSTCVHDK

[16] = target: Procathepsin L (Homo sapiens, UniProt P07711); test: CTSL1 protease inhibition – biochemical, QFRET, 1536-well, counter-screen for M1/M17 aminopeptidase inhibitor project, dose response (AID 2214)
Procathepsin L, sequence (P07711 whole entry): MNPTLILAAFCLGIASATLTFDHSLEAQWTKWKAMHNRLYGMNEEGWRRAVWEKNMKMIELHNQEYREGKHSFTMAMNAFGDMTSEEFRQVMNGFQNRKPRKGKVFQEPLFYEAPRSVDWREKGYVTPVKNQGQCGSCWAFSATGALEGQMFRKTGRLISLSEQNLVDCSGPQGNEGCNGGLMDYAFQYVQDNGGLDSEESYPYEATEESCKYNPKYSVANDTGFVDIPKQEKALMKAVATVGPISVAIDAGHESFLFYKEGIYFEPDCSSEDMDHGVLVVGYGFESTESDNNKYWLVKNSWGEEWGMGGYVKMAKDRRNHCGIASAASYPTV

[17] = viability loss in Vero cells – cytotoxicity control for Vif-APOBEC3G degradation inhibitor project, dose response (AID 1117358); type: functional; conditions: Vero

Clc1ccccc1Cn1nnc2c(NCCN3CCOCC3)ncnc21
IC50 [1]: > 100 µM (not active)

O=C(NCC(c1cccnc1)N1CCN(c2ccccc2F)CC1)OCc1ccccc1 (stereo not drawn)
EC50 [2]: < 0.1 µM (active)
EC50 [3]: > 60 µM (not active)
EC50 [4]: 0.071 µM (active)

COc1ccccc1Oc1ccc(S(=O)(=O)NCc2ccccn2)cc1
IC50 [1]: > 100 µM (not active)
AC50 [5]: 25.1 µM (active)
AC50 [6]: 14.8 µM (active)

c1ccc(-n2nnc(-c3cccnc3)n2)cc1
IC50 [7]: > 100 µM (not active)
IC50 [8]: > 100 µM (not active)
AC50 [9]: 213 µM (active)

CCOC(=O)C1CCN(C(=O)Nc2ccc3nc(-c4ccco4)c(-c4ccco4)nc3c2)CC1
IC50 [10]: > 10 µM (not active)
IC50 [11]: 1.46 µM (active)
IC50 [12]: 21.2 µM (inactive)
IC50 [13]: 2.01 µM (inconclusive)

Cc1ccc(-c2cccc(NC(=O)C3C4C=CC(C4)C3C(=O)O)c2)o1 (stereo not drawn)
IC50 [14]: 3.86 µM (active)
IC50 [15]: > 73.5 µM (not active)
IC50 [16]: > 59.6 µM (not active)

CCOc1c(OC)cccc1C1CC(=O)Nc2cc3c(cc21)OCCO3 (stereo not drawn)
CC50 [17]: > 40 µM (active)

From ChEMBL document CHEMBL1201862, “PubChem BioAssay data set” (2004)
